The source of these data is US20260070890A1, “MODULATORS OF TAU LIQUID-LIQUID PHASE SEPARATION AND METHODS THEREOF” (JAWAHARLAL NEHRU CENTRE FOR ADVANCED SCIENTIFIC RESEARCH, priority 2023, published 2026).

Test [1] in a line: Steady state fluorescence Zn titration (Stern-Volmer fit). It is filed as binding. The following applies: for Stern-Volmer binding constant (KSV): Table 1, with Zn, factor 10^4; for Stern-Volmer constant KSV with Zn^2+: compound 20 μM, Zn^2+ 2.5 to 40 μM, emission 530 nm. How it is done: The metal chelation ability of the compounds were assessed by UV-Visible absorbance and fluorescence spectroscopy by metal titration experiments. The small molecules were dissolved in HEPES buffer to make concentration of 20 μM and the metal ion (Zn^2+) was titrated with increasing concentration from 2.5 μM to 40 μM with 2 min of incubation between each addition. The change in absorbance and fluorescence spectra of compound was recorded and analysed for metal-small molecules interaction. The data was plotted in Origin (Pro), Version 2022 and analysed for determination of dissociation constant. The absorbance values were fitted using Benesi-Hildebrand equation to elucidate the binding constant of metals with small molecules.
where, KB is the binding or association constant, and A0 and Aα represent the peak absorbance of small molecules in the absence and presence of the highest concentration of metal ion (40 μM). The reciprocal of KB was taken as the dissociation constant, Kd. The change in fluorescence was fitted using Stern-Volmer equation to determine KSV: […]
where, F0 and F are the fluorescence intensities of small molecules in the absence and presence of metal ion, respectively. KSV is the Stern-Volmer quenching constant and [Q] is the concentration of quencher/enhancer (metal ion in this case).
Fluorescence spectroscopy is a reliable method to probe host-probe interactions, wherein the change in wavelength or intensity of emission spectrum is indicative of the strength of complexation. […] The classical Stern-Volmer equation was used to quantify the quenching and measure the Stern-Volmer constant, KSV wherein a higher value of KSV implies ability of the compound to form strong complexation with the host (Zn^2+). […] Due to the good binding affinity of the small molecules towards Zn, the designed small molecules were anticipated to chelate and interfere tau-Zn interaction.

Test [2] can be described thus: Isothermal titration calorimetry of small molecule-Zn interaction. As to conditions: for ΔG of binding to Zn, ITC / ΔH (enthalpy) of binding to Zn, ITC / −TΔS (entropy) of binding to Zn, ITC: 298 K; for ΔG / ΔH / −TΔS: Table 1, with Zn. Format: binding. How it is done:
ITC measurements were performed using a Malvern MicroCal-PEAQ ITC machine. Solutions of small molecules (compounds 1a, 1b and 1c) of the present disclosure and ZnCl2 were prepared in 100% DMSO. A revolving syringe was used to inject 26 consecutive 1.5 μL aliquots of Zn^2+ into the small molecules solution to ensure a continual mixing. The ITC cell reference power and temperature were set at […] and 25° C., respectively. To guarantee complete equilibration before the next injection, an interval of 150 s was maintained between subsequent measurements. Obtained isotherms were corrected by the subtraction of heat of dilution (buffer and small molecules). By using a single site binding model in the MicroCal PEAQ-ITC analysis software, nonlinear least squares fitting of the binding isotherms was carried out to estimate the thermodynamic parameters and dissociation constant (Kd).
The thermodynamic parameters of the interactions between small molecules and Zn^2+ were determined by ITC study. ZnCl2 solution in the injection syringe was titrated into compound solution in the sample cell. The heat change was measured and plotted as a function of the molar ratio of small molecules and Zn^2+. […] Right panel depicts the integrated binding isotherms as a function of the binary complex at 298 K. Fitting was obtained from the data points with one set of the binding site model). […] The Kd values determined from ITC validate the results obtained from other binding studies discussed vide supra (lower Kd and higher KSV). Both endothermic and exothermic peaks were observed upon binding of 1c and Zn resulting in a net negative ΔH value, and the data was fitted to exothermic one site binding model. For a reaction to be spontaneous, it must be favored by at least one of the factors, enthalpy or entropy.
(In general: Isothermal titration calorimetry measures the heat released or taken up as one component is titrated into another.)

The target in test [3] is T1, tau protein (Homo sapiens, UniProt P10636).
T1 construct: the full-length tau plasmid construct was transformed into E. coli, BL21 strain; inferred from the Ni-NTA purification; made in house; host or cells: E. coli BL21
T1 sequence (P10636 1-441 isoform P10636-8): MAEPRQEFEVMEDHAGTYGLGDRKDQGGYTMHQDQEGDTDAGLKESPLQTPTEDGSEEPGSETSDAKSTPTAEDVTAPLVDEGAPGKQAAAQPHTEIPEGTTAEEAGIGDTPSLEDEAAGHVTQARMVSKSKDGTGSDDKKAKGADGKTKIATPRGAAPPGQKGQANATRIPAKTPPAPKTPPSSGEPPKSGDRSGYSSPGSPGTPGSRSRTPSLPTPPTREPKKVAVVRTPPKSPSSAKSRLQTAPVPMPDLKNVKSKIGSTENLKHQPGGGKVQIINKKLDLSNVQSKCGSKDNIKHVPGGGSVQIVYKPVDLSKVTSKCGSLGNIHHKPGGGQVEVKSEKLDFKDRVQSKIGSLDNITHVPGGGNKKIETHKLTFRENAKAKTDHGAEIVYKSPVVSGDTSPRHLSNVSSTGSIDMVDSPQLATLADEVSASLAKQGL
Nature of the test: Tau intrinsic fluorescence quenching assay. The following applies: tau 5 μM, compound 250 nM to 25 μM; for Kd: PBS pH 7.4, read-out: One site binding saturation fit Kd with tau. Format: binding. How it is done: Tau protein was expressed and purified from E. coli as per known procedures. Briefly, the full-length tau plasmid construct was transformed into E. coli, BL21 strain and cultured in LB broth containing ampicillin ([…]) and chloramphenicol (50 μM) at 37° C. with continuous shaking at 180 rpm overnight. Then 1% of primary culture was transferred to 1 L of LB broth with antibiotics and incubated until it reaches OD of 0.6. The culture was induced with 1 mM IPTG and further cultured for 4 h. Cells were pelleted by centrifugation (7000 rpm) at 4° C. and resuspended in 50 mM phosphate buffer (0.3 M NaCl, 5 mM imidazole and 1 mM of PMSF, pH 8) and boiled to precipitate unwanted proteins for 10-15 min with intermittent agitation. The supernatant containing tau protein was collected and further purified by Ni-NTA affinity column chromatography. The purified tau protein was quantified by Bradford assay, characterised by SDS-PAGE and stored at −80° C. until further use.
Tau was dissolved in PBS buffer pH 7.4 to make 5 μM and titrated with small molecules from 250 nM to 25 μM concentration and fluorescence spectra was recorded by exiting at 274 nm. The emission spectra were plotted and analysed using Origin (Pro), Version 2022 and GraphPad Prism 9.4.0, fitted with one site binding saturation equation to find Kd. Further fluorescence quenching was fitted with Stern-Volmer equation to determine KSV.
The binding of small molecules with tau protein was monitored using tau intrinsic fluorescence spectral changes. […] The change in fluorescence intensity was fitted with one site binding saturation model to determine the Kd values. […] The KSV values were obtained from the Stern-Volmer equation to further quantify the extent of binding. […] This further emphasized the significance of the skeletal template of the modulators for tau interaction, rather than individual substituted aromatic amino acids.

Test [4] concerns the target T2, Zn induced tau LLPS (Homo sapiens, UniProt P10636).
T2 construct: the full-length tau plasmid construct was transformed into E. coli, BL21 strain; inferred from the Ni-NTA purification; made in house; host or cells: E. coli BL21
Nature of the test: DIC microscopy, inhibition of Zn induced tau LLPS. The following applies: tau 10 μM, Zn 40 μM, compound 20 μM added before Zn; Zn alone ~1.3. Format: biochemical. How it is done: (§1) Liquid-liquid phase separation (LLPS) of tau was induced by molecular crowding in LLPS buffer (10 mM HEPES, 100 mM NaCl, 10% PEG 4000 and pH 7.4) and Zn.^32 Tau (10 μM) was suspended in LLPS buffer and added Zn (40 μM) incubate for 10 min to induce LLPS. For inhibition studies the tau in LLPS buffer was treated with small molecules (20 μM) before addition of Zn and for control same volume of vehicle (DMSO) was added. Dissolution samples were prepared by induction of LLPS for 10 min using Zn and followed by addition of small molecules and further incubation of 15 min. The samples were drop-cast (10 μL) on clean glass slides, mount with coverslip and immediately imaged in Olympus FLUOVIEW 3000 microscope in differential interface contrast (DIC) mode with 63× oil immersion objective. The images were acquired in multiple areas and planes to confirm the LLPS formation and its modulation by small molecules. Image analysis was performed by using ImageJ software, plotted normalised droplet size against control and analysed by GraphPad Prism.
(§2) The strong binding interaction of small molecules with Zn and tau encouraged us to evaluate them for modulation of Zn indued LLPS of tau. The ability of small molecules to inhibit tau LLPS and formation of droplets were studied by differential interface contrast (DIC) microscopy (FIG. 4). In the presence of Zn, tau readily undergoes LLPS and formed liquid like droplets within 10 min, as evident from the observed fusion droplets (FIG. 4A and inset). […] The inhibitory effect is in the order of 1c followed by 1b and 1a, which agrees with Zn and tau binding ability of small molecules. The LLPS of tau is through transient weak interactions and we believe that the small molecules with strong multivalent interactions with tau and Zn (chelation) potentially dissolve the phase separated droplets. […] The absorption spectra of 1c in the presence of tau and Zn (independently) and together was recorded. […]

In test [5] the target is T3, Zn induced tau LLPS condensates (Homo sapiens, UniProt P10636).
T3 construct: the full-length tau plasmid construct was transformed into E. coli, BL21 strain; inferred from the Ni-NTA purification; made in house; host or cells: E. coli BL21
T3 sequence (P10636 1-441 isoform P10636-8): as above
Nature of the test: DIC microscopy, dissolution of phase separated tau condensates. It is filed as biochemical. As to conditions: LLPS induced 10 min with Zn, then compound 15 min; Zn alone 2.26. The protocol:
as §1, §2

In test [6] the target is T4, tau and Zn (Homo sapiens, UniProt P10636).
T4 construct: the full-length tau plasmid construct was transformed into E. coli, BL21 strain; inferred from the Ni-NTA purification; made in house; host or cells: E. coli BL21
T4 sequence (P10636 1-441 isoform P10636-8): as above
As to the kind of experiment: UV-Visible spectroscopy, preferential binding among tau and Zn. As to conditions: absorption spectra with tau, Zn and both. How it is done: as §2, with “droplets. To evaluate the reversal effect of small molecules on phase separated droplets, tau LLPS was induced (10 min) and treated with small molecules for 15 min followed by visualization by DIC imaging. […] The droplet size was reduced to less than control in case of 1c treated samples (˜0.66-fold) indicating its ability to inhibit Zn induced tau LLPS. The modulatory effect of 1c prompted to look for its preferential interaction among tau and Zn.” for “droplets.”

T2 sequence (P10636 1-441 isoform P10636-8): as above

`O=C1N[C@@H](Cc2ccc(O)cc2)C(=O)N[C@H]1CCCCN1C(=O)c2cccc3c(N(Cc4ccccn4)Cc4ccccn4)ccc(c23)C1=O` [Compound 1b, 6-(bis(pyridin-2-ylmethyl)amino)-2-(4-((2S,5S)-5-(4-hydroxybenzyl)-3,6-dioxopiperazin-2-yl)butyl)-1H-benzo[de]isoquinoline-1,3(2H)-dione]: in test [1], the “Stern-Volmer binding constant (KSV)” value is 1.7 × × 10^4 and the “Stern-Volmer constant KSV with Zn^2+” value was 1.7×10^4. In addition, in test [2], the “ΔG of binding to Zn, ITC” value is -5.78 kcal/mol; the “ΔH (enthalpy) of binding to Zn, ITC” value was -0.551 ± 0.056 kcal/mol; the “−TΔS (entropy) of binding to Zn, ITC” value was -5.23 kcal/mol. In addition, in test [2] (unit not given), the ΔG is given as −5.78, the ΔH is listed as −0.551 and the “−TΔS” value is given as −5.23. In test [3], the “Stern-Volmer KSV with tau” value amounted to 160000 M⁻¹ and the Kd was 1740 ± 170 nM. Besides, the “droplet size (normalized to control), inhibition of LLPS” value in test [4] is given as approximately 1.12 fold. Further, the “droplet size (normalized to control), dissolution of condensates” value in test [5] is approximately 1.6 fold.

For the compound `O=C1N[C@@H](Cc2c[nH]c3ccccc23)C(=O)N[C@H]1CCCCN1C(=O)c2cccc3c(N(Cc4ccccn4)Cc4ccccn4)ccc(c23)C1=O` [Compound 1c, 2-(4-((2S,5S)-5-((1H-indol-3-yl)methyl)-3,6-dioxopiperazin-2-yl)butyl)-6-(bis(pyridin-2-ylmethyl)amino)-1H-benzo[de]isoquinoline-1,3(2H)-dione], in test [1], the “Stern-Volmer binding constant (KSV)” value is given as 1.7 × × 10^4 and the “Stern-Volmer constant KSV with Zn^2+” value is listed as 1.7×10^4. Besides, in test [2], the “ΔG of binding to Zn, ITC” value was -6.45 kcal/mol; the “ΔH (enthalpy) of binding to Zn, ITC” value is -0.698 ± 0.223 kcal/mol; the “−TΔS (entropy) of binding to Zn, ITC” value was -5.75 kcal/mol. In test [2] (unit not given), the ΔG is −6.45, the ΔH is reported as −0.693 and the “−TΔS” value is reported as −5.75. In test [3], the “Stern-Volmer KSV with tau” value turned out to be 150000 M⁻¹ and the Kd is 3950 ± 320 nM. Also, the “droplet size (normalized to control), inhibition of LLPS” value in test [4] is approximately 1 fold. Further, in test [5], the “droplet size (normalized to control), dissolution of condensates” value is approximately 0.66 fold. Further, the “preferential interaction among tau and Zn” value in test [6] is recorded as “preferential interaction of 1c with tau over Zn”.

Take `O=C1N[C@@H](Cc2ccccc2)C(=O)N[C@H]1CCCCN1C(=O)c2cccc3c(N(Cc4ccccn4)Cc4ccccn4)ccc(c23)C1=O` [Compound 1a, 2-(4-((2S,5S)-5-benzyl-3,6-dioxopiperazin-2-yl)butyl)-6-(bis(pyridin-2-ylmethyl)amino)-1H-benzo[de]isoquinoline-1,3(2H)-dione]: in test [1], the “Stern-Volmer binding constant (KSV)” value is recorded as 0.06 × × 10^4 and the “Stern-Volmer constant KSV with Zn^2+” value is on record as 0.06×10^4. The “ΔG of binding to Zn, ITC” value in test [2] is -3.48 kcal/mol. Besides, in test [2] (unit not given), the “ΔH (enthalpy) of binding to Zn, ITC” value was −13.1±0.13; the “−TΔS (entropy) of binding to Zn, ITC” value turned out to be 9.59; the ΔG is −3.48; the ΔH is reported as −13.1. For the same compound, in test [2] (unit not given), the “−TΔS” value is 9.59. Further, in test [3], the “Stern-Volmer KSV with tau” value stood at 190000 M⁻¹ and the Kd turned out to be 2880 ± 510 nM. Moreover, in test [4], the “droplet size (normalized to control), inhibition of LLPS” value is reported as approximately 1.19 fold. The “droplet size (normalized to control), dissolution of condensates” value in test [5] is recorded as approximately 1.1 fold.
